This is an account of results in patent publication US8426429B2, “2-amino-quinazoline derivatives useful as inhibitors of β-secretase (BACE)” (Jansssen Pharmaceutica N.V., priority 2004, dated 2013).

The experiment concerns the target T1, β-secretase (BACE) (Homo sapiens, UniProt P56817).
T1 construct: purchased Panvera
The experiment in a line: BACE FS1 % Inhibition Assay. The class given is biochemical. In short, it runs like this: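 Percent inhibition per compound concentration was referenced to vehicle-treated enzyme and no-enzyme wells. Enzyme at a 4 μg/mL working stock plus compound was mixed for 20 min at room temperature before the FS1 substrate (300 μg/mL working stock) was added for a 1 h room-temperature reaction.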

T1 sequence (P56817 46-501): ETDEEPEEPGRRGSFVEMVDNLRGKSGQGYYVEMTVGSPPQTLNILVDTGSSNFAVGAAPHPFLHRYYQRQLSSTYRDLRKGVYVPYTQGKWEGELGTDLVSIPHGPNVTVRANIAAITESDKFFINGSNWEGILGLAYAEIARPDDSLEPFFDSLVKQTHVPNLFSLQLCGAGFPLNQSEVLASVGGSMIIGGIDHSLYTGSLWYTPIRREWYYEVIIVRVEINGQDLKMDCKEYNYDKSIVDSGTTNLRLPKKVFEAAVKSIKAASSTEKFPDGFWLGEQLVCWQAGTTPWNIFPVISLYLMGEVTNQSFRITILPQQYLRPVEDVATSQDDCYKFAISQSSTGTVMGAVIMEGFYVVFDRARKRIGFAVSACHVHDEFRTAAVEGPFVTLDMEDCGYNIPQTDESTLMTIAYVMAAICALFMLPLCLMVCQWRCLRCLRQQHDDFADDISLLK

In the case of `NC1=Nc2ccc(-c3ccccc3F)cc2CN1CCNC(=O)C1CCC(C(F)(F)F)CC1` (stereo not shown) [Compound 688], the “% Inhibition (FS)” value (0.3 μM compound, FS1 substrate) was below 30%; the “% Inhibition (FS)” value (1 μM compound, FS1 substrate) is recorded as 36%; the “% Inhibition (FS)” value (3 μM compound, FS1 substrate) came to 81%.
The like results for `CN(C(=O)CC[C@@H](C1CCCCC1)N1Cc2ccc(Oc3ccccc3)cc2N=C1N)C1CCCCC1` [Compound 754] were, in that order, 8%, 35% and 89%.
`CN(C(=O)c1ncoc1CN1Cc2cc(Oc3ccccc3)ccc2N=C1N)C1CCCCC1` [Compound 641]: the “% Inhibition (FS)” value reads like this: (0.3 μM test compound) below 30%; (1 μM test compound) below 30%; (3 μM test compound) 48%.
Consider `NC1=Nc2ccc(Oc3ccccc3)cc2CN1Cc1cccc(C(=O)NCCc2ccc(S(N)(=O)=O)cc2)c1` [Compound 188], for which the “% Inhibition (FS)” value by setting is: (0.3 μM test compound) below 30%; (1 μM test compound) below 30%; (3 μM test compound) below 30%.
With `CN(Cc1cccc(CC(=O)O)c1)C(=O)CCC(C1CCCCC1)N1Cc2cc(Oc3ccccc3)ccc2N=C1N` (stereo not shown) [Compound 778], the “% Inhibition (FS)” value is below 30% (0.3 μM compound, FS1 substrate) and 77% (1 μM compound, FS1 substrate).
Take `CC(C)CCC(=O)NCCN1Cc2cc(-c3cnc4ccccc4c3)ccc2N=C1N` [Compound 675]: the “% Inhibition (FS)” value by setting is: (0.3 μM compound, FS1 substrate) 35%; (1 μM compound, FS1 substrate) below 30%; (3 μM compound, FS1 substrate) below 30%.
In the case of `CN(C(=O)c1cccc(CN2Cc3cc(Nc4ccc5ccccc5c4)ccc3N=C2N)c1)C1CCCCC1` [Compound 436], the “% Inhibition (FS)” value (0.3 μM test compound) is recorded as below 30%, the “% Inhibition (FS)” value (1 μM test compound) worked out at 37% and the “% Inhibition (FS)” value (3 μM test compound) is reported as 50%.
The matching figures for `NC1=Nc2ccc(Oc3ccccc3)cc2CN1C(CC(=O)NC1CCCCC1)c1ccccc1` (stereo not shown) [Compound 299]: below 30%, below 30% and below 30%.
The matching figures for `CCCCCC1CCC(C(=O)NCCN2Cc3cc(Oc4ccccc4)ccc3N=C2N)CC1` (stereo not shown) [Compound 182]: below 30%, below 30% and 38%.
As to `NC1=Nc2ccc(Oc3ccccc3)cc2CN1[C@@H](CCC(=O)N[C@@H](CO)C(=O)O)C1CCOCC1` [Compound 771], the “% Inhibition (FS)” value (0.3 μM compound, FS1 substrate) is 46%; the “% Inhibition (FS)” value (1 μM compound, FS1 substrate) is given as 79%; the “% Inhibition (FS)” value (3 μM compound, FS1 substrate) amounted to 105%.
On to `NC1=Nc2ccc(Oc3ccccc3)cc2CN1C1CCCN(C(=O)C2CCCCC2)C1` (stereo not shown) [Compound 611], for which the “% Inhibition (FS)” value reads like this: (0.3 μM test compound) below 30%; (1 μM test compound) 36%; (3 μM test compound) below 30%.
Take `COc1ccccc1-c1ccc2c(c1)CN(CCNC(=O)CN)C(N)=N2` [Compound 490]: the “% Inhibition (FS)” value runs as follows: (0.3 μM test compound) below 30%; (1 μM test compound) below 30%; (3 μM test compound) below 30%.
Turning to `CN(C(=O)c1cccc(CN2Cc3cc(Oc4cccc(-c5ccc6ccccc6n5)c4)ccc3N=C2N)c1)C1CCCCC1` [Compound 473], the “% Inhibition (FS)” value is below 30% (0.3 μM test compound), below 30% (1 μM test compound) and below 30% (3 μM test compound).
For the compound `NC1=Nc2ccc(-c3ccccc3Cl)cc2CN1CCNC(=O)C1CCOCC1` [Compound 689], the “% Inhibition (FS)” value (0.3 μM compound, FS1 substrate) was 33% and the “% Inhibition (FS)” value (1 μM compound, FS1 substrate) is given as 82%.
Take `CN(C(=O)c1ccccc1CN1Cc2cc(Oc3ccccc3)ccc2N=C1N)C1CCCCC1` [Compound 463]: the “% Inhibition (FS)” value is below 30% (0.3 μM test compound), below 30% (1 μM test compound) and below 30% (3 μM test compound).
As to `NC1=Nc2ccc(-c3ccccc3F)cc2CN1CCNC(=O)C1CCCC1` [Compound 643], the “% Inhibition (FS)” value is listed as 74% (0.3 μM test compound), 92% (1 μM test compound) and 110% (3 μM test compound).
Turning to `CCCC=Cc1ccc2c(c1)CN(CCNC(=O)CC1CCCC1)C(N)=N2` [Compound 580], the “% Inhibition (FS)” value (0.3 μM test compound) is given as below 30%, the “% Inhibition (FS)” value (1 μM test compound) was below 30% and the “% Inhibition (FS)” value (3 μM test compound) is below 30%.
